The source of these data is patent US20260263517A1, “THERAPEUTIC METHODS WITH TARGET-LINKED SMALL MOLECULES AND ANTI-TARGET CAR T CELLS” (Seattle Children's Hospital (dba Seattle Children's …, priority 2022, published 2026).

The structures appear in SMILES notation. Entries after “also recorded” stand apart in the source; their conditions may differ.

Data set [1] in a line: EC17 dose finding and CRS assessment in tumor-free mice. Type of data set: in vivo, NSG mice. An excerpt:
For MDA-MB-231 studies, mice received a high dose (~10 million) of a “clinical facsimile” of E2-CAR-T cells (~39% EGFRt+) with a low differentiation profile (FIG. 9). Two days later, 3 different treatment regimens of EC17 were started at an average tumor size of −293±39 mm^3 (FIG. 12). The EC17 dosing was given once-a-week (SIW) at 500 nmol/kg on Mondays, or as escalating doses of 5, 50 or 100, and 500 or 1000 nmol/kg (i.e., 5/50/500 or 5/100/1000) on Monday, Thursday, and Monday with a 6-day break in-between cycles. Control mice were left untreated (received CAR-T cells but no EC17). For comparison, a cohort of tumor-free littermates also received the same number of CAR-T cells without or with EC17 SIW at 500 nmol/kg.
The initial EC17 dose finding studies were conducted in MDA-MB-231 tumor bearing mice as shown by the schematic diagram of the experimental layout (FIG. 12, panel A). NSG mice without or with MDA-MB-231 tumors (~211±65 mm3) were engrafted on day 0 with −10 million of a “clinical facsimile” batch of E2-CAR-T cells (−39% EGFRt+, 51:49 CD4/CD8). This batch of CAR-T cells consisted of mostly TSCM and TCM phenotypes (see FIG. 9). Two days after the CAR-T cell injection, one cohort of tumor-bearing mice were left untreated while three cohorts were treated with different regimens of EC17, including single injection per week (SIW) at 500 nmol/kg, or as escalating EC17 dose levels of 5/50/500 (Escalation-1) or 5/100/1000 nmol/kg (Escalation-2) given on a Monday/Thursday/Monday schedule with 1-week drug-free intervals. For comparison, two tumor-free cohorts were either untreated or treated with EC17 SIW at 500 nmol/kg.

The nature of the next data set: water solubility of EC17. Type of data set: physicochemical.
A further data set relates to THP1-FRβ tumor cells. Put plainly: intravenous THP1-FRβ AML xenograft, E2 CAR-T cells plus EC17 dosing regimens. Type of data set: in vivo. As for the experimental part: One objective of this E2-CAR T-cell study was to test EC17/E2 CAR-T cell activity and related toxicity (e.g., sCRS) using multiple dosing regimens starting 3 days after CAR-T infusion. Three different EC17 dosing regimens include (a) once-a-week (SIW) at 500 nmol/kg, (b) “T1W-like” at 5, 50, and 500 nmol/kg on Monday/Wednesday/Friday with 9-day intervals, and (c) “T1W-like” at 5, 100, and 1000 nmol/kg on Monday/Thursday/Monday with 7-day intervals.
THP-1-FRβ AML tumor cells were grown in folate-deficient RPMI 1640 with 5-10% FBS at 37° C. in a 5% CO2 humidified atmosphere. THP-1-FRO tumor cells in serum-free folate-deficient RPMI1640 medium were i.v. injected at 5×10^6 cells per animal.
Anti-FITC E2 scFv-CAR T cells were frozen in a T-cell freezing medium. Upon arrival, vials of frozen CAR-T cells were immediately stored at −80° C. The CAR-T cells were quickly thawed at 37° C., washed twice with CAR-T cell culture medium, and used for animal injection at 6 million viable EGFRt+E2 CAR-T cells (CD4/CD8 at ~1:1) per animal. A small aliquot was taken on the day infusion for flow cytometric analysis of E2-CAR T-cell phenotypes.
EC17 and bis-EDA-FITC dosing solutions were prepared when dosing began by weighing appropriate amounts of each compound, reconstituting in PBS, pH 7.4, sterile filtering the drug solution through a 0.22 pm PVDF syringe filter, and freezing aliquots for each day of dosing at −20° C.
All EC17 doses were given towards the end of day (3-4 PM) to allow potential CRS (cytokine release syndrome) to develop overnight. In the following morning, animals were scored according to a CRS grading system (see below).
Daily body weight measurement on the days after EC17 dose is required. Attention was given to gross animal morphology and behavior. Euthanasia was performed if mice lose a lot of weight in a short duration or when mice are approaching moribund conditions per CRS grading system or neurotoxicity.
Tumor growth, body weight, and overall assessment: Body weight measured 2-3 times/week. On the days immediately after any EC17 dose, body weight measurement was taken daily, and attentions were given to gross animal morphology and behavior.
Whole blood cell analysis: Plasma was removed from predetermined volumes of whole EDTA treated blood and RBCs were lysed with RBC lysis solution. The leukocyte pellets were then resuspended in flow cytometry staining solution (1% bovine serum albumin, 50 mg/mL human IgG (Equitech Bio, cat #SLH56-0001), 0.9% sodium azide in a phosphate buffered saline, pH=7.4) and leukocyte surface marker staining was performed using the following antibodies: anti-human CD45 (clone HI30, eBioscience #47-0459-42 at 1:20 (v/v) dilution), anti-human CD137 (clone 4B4-1, BD Bioscience #564092 at 1:20 (v/v) dilution), anti-human CD8α [clone RPA-T8, BD Bioscience, catalog #557746 at 1:20 (v/v) dilution], anti-human CD4 [clone SK3, eBioscience catalog #46-0047-42 at 1:20 (v/v) dilution], anti-human EGFR [R&D systems, clone Hu1, catalog #FAB9577B @1:10(n/n)], anti-human PD1 [BD Biosciences, clone EH12.1, catalog #562511 @1:20 (v/v)], anti-human LAG3 [BD Biosciences, clone T47-530, catalog #565616 @1:20 (v/v)], anti-human TIM3 [BD Biosciences, clone 7D3, catalog #565558 @1:20 (v/v)], anti-human CD3ε [BD Biosciences, clone SK7, catalog #557832 @1:20 (v/v)]. After leukocyte staining, cells were washed with PBS and resuspended in cold PBS containing 53,000 CountBright™ beads [Invitrogen catalog #C36950] and transferred to flow cytometry collection tubes. Flow cytometry data was collected on the Gallios flow cytometer (Beckman Coulter, Brea, CA). Determination of the concentration of CAR T cells in each blood sample was calculated according to Invitrogen's instructions. CAR T cells were identified as human CD3ε+EGFRt+ events and easily distinguished and counted using the Kaluza™ flow cytometry software. […]

Where [2] appears, read: 6 million CAR-T + EC17 SIW 500 nmol/kg (Cohort 3).

For the compound `NC1=NC2N=CC(CNc3ccc(C(=O)N[C@@H](CCC(=O)NCCNC(=S)Nc4ccc(-c5c6ccc(=O)cc-6oc6cc(O)ccc56)c(C(=O)O)c4)C(=O)O)cc3)=NC2C(=O)N1` (some centres unmarked) [EC17, FA-(γ)-ethylenediamine-FITC], the “CAR-T cell expansion by flow cytometry” value in data set [1] (tumor-free cohorts) was “no CAR-T cell expansion was detected”. Further, the body weight loss entry is on record as “no CRS symptoms (grade 0 out of a 0-5 scale) or body weight loss” in data set [1] (tumor-free mice, CAR-T cells + two weekly doses of EC17 at 500 nmol/kg); “little body weight loss during the first two cycles; also recorded: very mild body weight loss” in the data set with THP1-FRβ tumor cells (6 million CAR-T + EC17 M/Th/M dose escalation (Cohort 5)); “EC17 dose-dependent body weight loss after each EC17 dose; also recorded: some body weight loss” in the data set with THP1-FRβ tumor cells (setting [2]); “mildest body weight loss among three treatment groups; also recorded: least body weight loss” in the data set on THP1-FRβ tumor cells (6 million CAR-T + EC17 TIW 5/50/500 nmol/kg on/off (Cohort 4)). The IFNγ in plasma entry in data set [1] (tumor-free, CAR-T cells plus EC17, days 11 and 12) is given as “low levels of IFNγ were detected”. Moreover, the water solubility entry in the data set “water solubility of EC17” was “good water solubility”. In addition, the CRS grade with THP1-FRβ tumor cells (setting [2]) is 1-2. In addition, the “circulating THP1-FRβ (GFP+) tumor cells in blood” value in the data set with THP1-FRβ tumor cells (E2 CAR T cells + EC17, all three dosing regimens, end of study) is listed as “significant reduction in circulating THP1 cell burden; also recorded: effectively reduced circulating THP11-FRβ tumor cells in the blood”. In addition, the non-liver macrometastases result with THP1-FRβ tumor cells (EC17 M/Th/M dose escalation at a slow pace per cycle) is “failed to control the non-liver macrometastases”; with THP1-FRβ tumor cells (EC17 SIW 500 nmol/kg) it was “successfully controlled non-liver macrometastases”; in the data set on THP1-FRβ tumor cells (EC17 TIW 5/50/500 nmol/kg on/off), “successfully controlled non-liver macrometastases”. Also, in the data set with THP1-FRβ tumor cells (EC17 TIW 5/50/500 nmol/kg on/off (Cohort 4), Day 39), the “liver and non-liver (overall) tumor burden” value was “best anti-tumor activity among the three different EC17 dose schedules; also recorded: trended to be the best regimen”. Moreover, in the data set on THP1-FRβ tumor cells (EC17 TIW (cohort 4)), the “co-expression of PD1, LAG3, TIM3 on CAR T cells from liver tumors” value is “fewest number of double and triple positive events”. The “CAR T exhaustion” value in the data set with THP1-FRβ tumor cells (all three EC17 dosing regimens) is listed as “very little induction of CAR T exhaustion”. For the same compound, the “severe CRS (grades≥3)” value in the data set with THP1-FRβ tumor cells (any EC17 treated cohort) is “no severe CRS (i.e., grades≥3) was observed”. In addition, the “circulating CAR-T cells in blood” value in the data set on THP1-FRβ tumor cells (satellite animals, day 31, all EC17 treated cohorts) is “EC17-dependent CAR-T cell expansion and persistence in all treated cohorts”.
